Nine compounds from ChEMBL document CHEMBL1671755, “Prevalence, mutation patterns, and effects on protease inhibitor susceptibility of the L76V mutation in HIV-1 protease” (2010) can be followed below.

Holding throughout (format): functional
The test system of assay [1] is Human immunodeficiency virus 1. As to the kind of experiment: Antiviral activity against Human immunodeficiency virus 1 harboring protease inhibitor resistance-associated mutations and protease L76V mutation in viral protease assessed as fold change in drug susceptibility relative to wild type.
Assay [2] deals with Human immunodeficiency virus 1. Kind of assay: Antiviral activity against Human immunodeficiency virus 1 harboring M46I, M46L, I54V, and V82A mutations in viral protease assessed as fold change in drug susceptibility relative to wild type.
Assay [3] relates to Human immunodeficiency virus 1. Kind of assay: Antiviral activity against Human immunodeficiency virus 1 harboring M46I and L76V mutations in viral protease assessed as fold change in drug susceptibility relative to wild type.
The subject of assay [4] is Human immunodeficiency virus 1. As to the kind of experiment: Antiviral activity against Human immunodeficiency virus 1 harboring M46I, M46L, I54V, V82A and L76V mutations in viral protease assessed as fold change in drug susceptibility relative to wild type.
Assay [5] concerns Human immunodeficiency virus 1. Kind of assay: Antiviral activity against Human immunodeficiency virus 1 harboring M46I mutation in viral protease assessed as fold change in drug susceptibility relative to wild type.
The test system of assay [6] is Human immunodeficiency virus 1. As to the kind of experiment: Antiviral activity against Human immunodeficiency virus 1 harboring protease inhibitor resistance-associated mutations assessed as fold change in drug susceptibility relative to wild type.

On to `CC(C)CN(C[C@@H](O)[C@H](Cc1ccccc1)NC(=O)O[C@H]1CCOC1)S(=O)(=O)c1ccc(N)cc1` [AMPRENAVIR], for which the “fold change (FC)” value in assay [1] amounted to 70.9; in assay [2], 3.7; in assay [3], 6.7; in assay [4], 19.3; in assay [5], 1.5; in assay [6], 21.1.

`COC(=O)N[C@H](C(=O)N[C@@H](Cc1ccccc1)[C@@H](O)CN(Cc1ccc(-c2ccccn2)cc1)NC(=O)[C@@H](NC(=O)OC)C(C)(C)C)C(C)(C)C` [ATAZANAVIR]: the “fold change (FC)” value is recorded as 11.3 in assay [1]; 5.7 in assay [2]; 0.9 in assay [3]; 2.1 in assay [4]; 4.3 in assay [5]; 75.2 in assay [6].

`CC(C)CN(C[C@@H](O)[C@H](Cc1ccccc1)NC(=O)O[C@H]1CO[C@H]2OCC[C@H]21)S(=O)(=O)c1ccc(N)cc1` [DARUNAVIR]: the “fold change (FC)” value in assay [1] turned out to be 37.4; in assay [2] it was 1.1; in assay [3] it was 2.8; in assay [4], 4.2; in assay [5] it was 0.9; in assay [6], 8.5.

On to `CC(C)(C)NC(=O)[C@@H]1CN(Cc2cccnc2)CCN1C[C@@H](O)C[C@@H](Cc1ccccc1)C(=O)N[C@H]1c2ccccc2C[C@H]1O.O` [INDINAVIR], for which the “fold change (FC)” value in assay [1] came out at 60.1; in assay [2] it was 9.7; in assay [3], 8.6; in assay [4], 37.4; in assay [5] it was 3.4; in assay [6] it was 40.1.

In the case of `Cc1cccc(C)c1OCC(=O)N[C@@H](Cc1ccccc1)[C@@H](O)C[C@H](Cc1ccccc1)NC(=O)[C@H](C(C)C)N1CCCNC1=O` [LOPINAVIR], the “fold change (FC)” value came to 174.2 in assay [1]; 28 in assay [2]; 9.9 in assay [3]; 163.1 in assay [4]; 1.6 in assay [5]; 46.1 in assay [6].

As for `Cc1c(O)cccc1C(=O)N[C@@H](CSc1ccccc1)[C@H](O)CN1C[C@H]2CCCC[C@H]2C[C@H]1C(=O)NC(C)(C)C` [NELFINAVIR], the “fold change (FC)” value in assay [1] is listed as 36.1; in assay [2], 13.9; in assay [3], 2.5; in assay [4], 14.8; in assay [5] it was 7.9; in assay [6], 78.3.

Consider `CC(C)c1nc(CN(C)C(=O)N[C@H](C(=O)N[C@@H](Cc2ccccc2)C[C@H](O)[C@H](Cc2ccccc2)NC(=O)OCc2cncs2)C(C)C)cs1` [RITONAVIR], for which the “fold change (FC)” value in assay [1] stood at 113.2; in assay [2], 37.6; in assay [3], 2.7; in assay [4], 63.6; in assay [5], 2.2; in assay [6] it was 129.7.

On to `CC(C)(C)NC(=O)[C@@H]1C[C@@H]2CCCC[C@@H]2CN1C[C@@H](O)[C@H](Cc1ccccc1)NC(=O)[C@H](CC(N)=O)NC(=O)c1ccc2ccccc2n1` [SAQUINAVIR], for which the “fold change (FC)” value in assay [1] was 43.5; in assay [2], 2.8; in assay [3] it was 0.7; in assay [4], 3.2; in assay [5] it was 1.2; in assay [6], 197.4.

With `CCC[C@@]1(CCc2ccccc2)CC(O)=C([C@H](CC)c2cccc(NS(=O)(=O)c3ccc(C(F)(F)F)cn3)c2)C(=O)O1` [TIPRANAVIR], the “fold change (FC)” value was 3.6 in assay [1]; 1.7 in assay [2]; 0.8 in assay [3]; 1.2 in assay [4]; 1.2 in assay [5]; 6.7 in assay [6].
